Data published in patent publication US20250177341A1, “DIETARY TRIPROPIONIN SUPPLEMENTATION TO REDUCE ADIPOSITY AND IMPROVE GLUCOSE HOMEOSTASIS” (Wisconsin Alumni Research Foundation, priority 2023, published 2025).

How the values were obtained:
[1] = Experiment 3: insulin tolerance test in humanized gnotobiotic mice; conditions: mouse, in vivo
Description: We colonized germ-free mice with a complex community of human fecal microbiota, induced metabolic dysregulation though feeding a high-fat diet for 8 weeks, and subjected the mice to a tripropionin- or glycerol-supplemented diet (FIG. 3A).
Experiment 3: Germ-free (GF) male mice (C57BL/6J) were housed in sterile isolators and maintained on autoclaved chow (LabDiet 5021; LabDiet, St. Louis, MO) and sterile water ad libitum. GF cages contained Alpha-dri® (Shepherd Specialty Papers, Kalamazoo, MI) bedding along with paper huts (Bio-Huts, Bio-Serv, Flemington, NJ) and ALPHA-twist™ (Shepherd Specialty Papers) for enrichment. Monthly tests were conducted in each isolator to confirm GF status of the mice. These included a growth test of feces in rich media for 7 days at 37° C. and checking for amplification of the 16S rRNA gene using universal primers. At 5 and 6 weeks of age mice were placed in Allentown Sentry SPP IVC rack system (Allentown Inc., Allentown, NJ) and fed a HFD (TD08811, Envigo). Mice were then colonized with fecal microbiota from a human donor fecal specimen via gavage with a fecal slurry. […]
The ITT was performed one week after the OGTT. […] Blood glucose levels were monitored as described for OGTT. Insulin tolerance curves are expressed as the relative ratio of blood glucose from the baseline.

[2] = Experiment 1: insulin tolerance test; parameters: species or system mice; conditions: mouse, in vivo
Description: Experiment 1: Male C57BL/6J mice were ordered from Jackson Laboratories (Bar Harbor, ME) maintained on chow (Teklad 8604, Inotiv, Madison, WI) and housed in a chlorinated water rack system in cages with cornhusk bedding and ALPHA-twist™. At 11 weeks of age, the mice were switched to either a glycerol (TD220541) or tripropionin diet (TD220540) from Envigo (Madison, WI) with a sample size of 6 mice per treatment. […] One week later, mice were subjected to an ITT. […] Mice were sacrificed at 24 weeks of age.
The ITT was performed one week after the OGTT. Mice were fasted for 4 hours in fresh cages and baseline blood glucose levels were taken from tail blood. Insulin was administered at a rate of 0.75 IU per Kg body weight via IP injection. Blood glucose levels were monitored as described for OGTT. Insulin tolerance curves are expressed as the relative ratio of blood glucose from the baseline.

[3] = Experiment 1: high-fat diet supplemented with tripropionin, body weight, food consumption, body composition by NMR; parameters: species or system mice; conditions: mouse, in vivo
Description: Experiment 1: Male C57BL/6J mice were ordered from Jackson Laboratories (Bar Harbor, ME) maintained on chow (Teklad 8604, Inotiv, Madison, WI) and housed in a chlorinated water rack system in cages with cornhusk bedding and ALPHA-twist™. At 11 weeks of age, the mice were switched to either a glycerol (TD220541) or tripropionin diet (TD220540) from Envigo (Madison, WI) with a sample size of 6 mice per treatment. […] Mice were maintained on their respective diets for an additional 8 weeks and then transferred to single-housed metabolic cages (Promethion Core system, Sable Systems International, North Las Vegas, NV) where body weight food intake and activity level was monitored. During this period, fat and lean mass were monitored using nuclear magnetic resonance (NMR) machine fitted for mice (LF90 Body Composition Analyzer, Bruker Corporation, Billerica, MA). […]

[4] = Experiment 2: respiratory quotient in metabolic cages; parameters: species or system mice; conditions: mouse, in vivo
Protocol: (§1) We next tested the anti-adipogenic effects of tripropionin in metabolically challenged mice. To do this, we fed a HFD for 10 weeks to induce insulin resistance and obesity and then switched mice to either the tripropionin or glycerol diet for 5 weeks (FIG. 2A). […] Mice were monitored in metabolic cages to measure respiratory quotient (RQ) for the initial 48 hours after diet change.
(§2) Experiment 2: Male C57BL/6J mice were ordered from Jackson Laboratories (Bar Harbor, ME) maintained on a chow diet and housed in a chlorinated water rack system. Mice were switched to the HFD and maintained on this diet for 10 weeks at which point mice were fed either the glycerol or the tripropionin diets (n=6 mice per group). Mice were transferred to singly housed metabolic cages, as described above, to measure respiratory quotient, body weight, food intake, and energy expenditure. Five weeks after diet change mice underwent an OGTT and then an ITT one week later.

[5] = Experiment 2: obese HFD-fed mice switched to tripropionin diet, body weight and body composition; conditions: mouse, in vivo
Protocol: as §1, §2

[6] = Experiment 1: oral glucose tolerance test; type: in vivo; conditions: four weeks after diet change, vs glycerol-fed mice
Protocol: To assess the effect of tripropionin on adiposity and glucose homeostasis, we fed 11-week-old male C57BL/6J mice a high-fat diet (45% kcal from fat) (HFD) supplemented with either 5.3% tripropionin (w/w) or 5.3% glycerol as a control. Mice were maintained on these diets for 13 weeks, during which food consumption and body weight were measured and an oral glucose tolerance test (OGTT) and insulin tolerance test (ITT) were performed (FIG. 1A). Additionally, body composition was monitored via NMR during the last 2 weeks before sacrifice.
Experiment 1: Male C57BL/6J mice were ordered from Jackson Laboratories (Bar Harbor, ME) maintained on chow (Teklad 8604, Inotiv, Madison, WI) and housed in a chlorinated water rack system in cages with cornhusk bedding and ALPHA-twist™. […] Mice were maintained on their respective diets for an additional 8 weeks and then transferred to single-housed metabolic cages (Promethion Core system, Sable Systems International, North Las Vegas, NV) where body weight food intake and activity level was monitored. During this period, fat and lean mass were monitored using nuclear magnetic resonance (NMR) machine fitted for mice (LF90 Body Composition Analyzer, Bruker Corporation, Billerica, MA). […]
Prior to OGTT, mice were placed in fresh cages fasted for 4 hours. […] Blood glucose levels were measured at regular intervals between 15 and 120 minutes.

[7] = Experiment 3: gnotobiotic mice colonized with human fecal microbiota, body weight; conditions: mouse, in vivo
Description: To check whether the effects of tripropionin supplementation are consistent in the context of a human microbiome, we used a gnotobiotic mouse model colonized with human fecal microbiota. We colonized germ-free mice with a complex community of human fecal microbiota, induced metabolic dysregulation though feeding a high-fat diet for 8 weeks, and subjected the mice to a tripropionin- or glycerol-supplemented diet (FIG. 3A).
At 5 and 6 weeks of age mice were placed in Allentown Sentry SPP IVC rack system (Allentown Inc., Allentown, NJ) and fed a HFD (TD08811, Envigo). Mice were then colonized with fecal microbiota from a human donor fecal specimen via gavage with a fecal slurry. The fecal slurry was prepared by collecting 200-500 mg of frozen feces and adding it to anaerobic CMM broth in an anaerobic chamber. The mixture was vortexed for 1 minute and then placed on ice until gavaging (less than 1 hour after preparation). Mice were maintained on the HFD for an additional 6 weeks before being switched to either the glycerol or tripropionin diets (n=4-5 per group). Four weeks after diet change mice were subjected to an OGTT followed by an ITT a week later. Mice were euthanized one week after ITT.

CCC(=O)OCC(COC(=O)CC)OC(=O)CC [tripropionin, 2,3-di(propanoyloxy) propyl propanoate]
insulin sensitivity (ITT) [1]: improved insulin sensitivity | insulin sensitivity (ITT) [2]: improved insulin sensitivity | body weight [3]: significantly reduced body weight | fat mass (NMR) [3]: primarily due to differences in fat mass | respiratory quotient (RQ) [4]: reduced | body weight [5]: reduced body weight | fat mass (NMR) [5]: reduction in fat mass | onset of body weight reduction [5]: significant differences observed just three days after the diet change | glucose tolerance (OGTT) [6]: improved glucose tolerance | body weight [7]: reduced body weight
